In article PMC3214022, “Plasmodium falciparum Parasites Are Killed by a Transition State Analogue of Purine Nucleoside Phosphorylase in a Primate Animal Model” (PLoS ONE, 2011):

Assay: Weights, CBC, blood chemistry and signs of toxicity, Table S1 sheet PD-2 (infected Aotus, twice a day for seven days)
Format: in vivo, Aotus lemurinus lemurinus
Conditions: oral 10 mg/kg twice a day/7 days, 26047 Female (ITM1)
Experimental: Laboratory bred Aotus lemurinus lemurinus monkeys (0.75–0.89 kg) were maintained as described. […] Blood samples were collected before the treatment started (t = 0), 0.05 h, 0.5 h, 1 h, 2 h, 6 h, 24 h, 48 h, and 6, 12 and 18 days after the first dose from each monkey and processed as described below. Pharmacokinetic parameters were calculated using PKSolver. For efficacy studies, Aotus monkeys were inoculated intravenously with 5×10^6 parasites of the FVO strain of P. falciparum in an approved treatment protocol. […] Parasitaemia was determined by Giemsa-stained thick blood smears prepared daily from the marginal ear vein [41]. Blood samples were collected from each monkey and transferred to tubes containing lithium heparin, centrifuged and both plasma and blood cells were frozen at −80 °C until analysis. Animals received a physical examination and blood chemistry profiles were monitored after treatment as described previously. Any monkey not responding appropriately to treatment was cured of its infection with mefloquine (40 mg kg^−1). […] The day of clearance is defined as the first of three consecutive days in which the thick blood films are parasite negative. The day of recrudescence is the first of three consecutive days of positive thick blood films after a period of clearance. Suppression is defined as a transient decrease in the parasite count post-treatment without clearance.

With Nc1nc2c(CN3CC(O)C(CO)C3)c[nH]c2c(=O)[nH]1 (centres unmarked) [BCX4945, 4′-deaza-1′-aza-2′-deoxy-1′-(9-methylene)-Immucillin-G] the “Lymphocytes (%)” value (day 12) was 68.4%, the “Lymphocytes (x 103/ul)” value (day 12) was 11.5 x 103/ul and the “Mean Corpuscular Hemoglobin” value (day 12) was 28.3 pg. The “Mean Corpuscular Volume” value (day 12) was 79.5 fL, the “Mean Hemoglobin Content” value (day 12) was 35.5 g/dL and the “Mean Platelet Volume” value (day 12) was 9.9 fL. For the same compound, the “Monocytes (%)” value (day 12) was 10.3%, the “Monocytes (x 103/ul)” value (day 12) was 1.7 x 103/ul and the Platelets (day 12) was 338000 µL⁻¹. For the same compound, the “Red Cell Distribution Width” value (day 12) was 13.6%, the Reticulocytes (day 12) was 2.2% and the WEIGHT (day 12) was 845 g. For the same compound, the “Blood Urea Nitrogen” value (day 15) was 11.4 mg/dL, the Creatine (day 15) was 0.638 mg/dL and the Erythrocytes (day 15) was 4.51e+06 µL⁻¹. The “Glutamate Pyruvate Transaminase” value (day 15) was 21.4 U/L, the “Granulocytes (%)” value (day 15) was 7.5% and the “Granulocytes (x 103/ul)” value (day 15) was 1 x 103/ul. It also gave a Hematocrit (day 15) of 36.3%, a Hemoglobin (day 15) of 12.9 g/dL and a Leucocytes (day 15) of 13100 µL⁻¹. The “Lymphocytes (%)” value (day 15) was 81.3%, the “Lymphocytes (x 103/ul)” value (day 15) was 10.7 x 103/ul and the “Mean Corpuscular Hemoglobin” value (day 15) was 28.7 pg. For the same compound, the “Mean Corpuscular Volume” value (day 15) was 80.5 fL, the “Mean Hemoglobin Content” value (day 15) was 35.6 g/dL and the “Mean Platelet Volume” value (day 15) was 10.4 fL. The “Monocytes (x 103/ul)” value (day 15) was 1.5 x 103/ul, the Platelets (day 15) was 164000 µL⁻¹ and the “Red Cell Distribution Width” value (day 15) was 17.5%. For the same compound, the Reticulocytes (day 15) was 4.2%, the WEIGHT (day 15) was 839 g and the “Blood Urea Nitrogen” value (day 18) was 16.4 mg/dL. The Creatine (day 18) was 0.5 mg/dL, the Erythrocytes (day 18) was 4.39e+06 µL⁻¹ and the “Glutamate Pyruvate Transaminase” value (day 18) was 15.3 U/L. For the same compound, the “Granulocytes (%)” value (day 18) was 7.8%, the “Granulocytes (x 103/ul)” value (day 18) was 1.7 x 103/ul and the Hematocrit (day 18) was 35.7%. For the same compound, the Hemoglobin (day 18) was 12.3 g/dL, the Leucocytes (day 18) was 21900 µL⁻¹ and the “Lymphocytes (%)” value (day 18) was 82.9%. The “Lymphocytes (x 103/ul)” value (day 18) was 18.2 x 103/ul, the “Mean Corpuscular Hemoglobin” value (day 18) was 28 pg and the “Mean Corpuscular Volume” value (day 18) was 81.2 fL. For the same compound, the “Mean Hemoglobin Content” value (day 18) was 34.4 g/dL, the “Mean Platelet Volume” value (day 18) was 12.4 fL and the “Monocytes (%)” value (day 18) was 9.3%. For the same compound, the “Monocytes (x 103/ul)” value (day 18) was 2 x 103/ul, the Platelets (day 18) was 115000 µL⁻¹ and the “Red Cell Distribution Width” value (day 18) was 16.7%. For the same compound, the Reticulocytes (day 18) was 3.1%, the WEIGHT (day 18) was 860 g and the Erythrocytes (day 25) was 4.98e+06 µL⁻¹. For the same compound, the “Granulocytes (%)” value (day 25) was 4.7%, the “Granulocytes (x 103/ul)” value (day 25) was 0.8 x 103/ul and the Hematocrit (day 25) was 40.8%. For the same compound, the Hemoglobin (day 25) was 13.7 g/dL, the Leucocytes (day 25) was 16900 µL⁻¹ and the “Lymphocytes (%)” value (day 25) was 90%. For the same compound, the “Lymphocytes (x 103/ul)” value (day 25) was 15.2 x 103/ul, the “Mean Corpuscular Hemoglobin” value (day 25) was 27.4 pg and the “Mean Corpuscular Volume” value (day 25) was 81.8 fL. For the same compound, the “Mean Hemoglobin Content” value (day 25) was 33.6 g/dL, the “Mean Platelet Volume” value (day 25) was 11.8 fL and the “Monocytes (%)” value (day 25) was 5.3%. For the same compound, the “Monocytes (x 103/ul)” value (day 25) was 0.9 x 103/ul, the Platelets (day 25) was 158000 µL⁻¹ and the “Red Cell Distribution Width” value (day 25) was 17.4%. The Reticulocytes (day 25) was 1.9%, the WEIGHT (day 25) was 843 g and the “Blood Urea Nitrogen” value (day -10) was 15.35 mg/dL. For the same compound, the Creatine (day -10) was 0.531 mg/dL, the Erythrocytes (day -10) was 6.12e+06 µL⁻¹ and the “Glutamate Pyruvate Transaminase” value (day -10) was 20.1 U/L. For the same compound, the “Granulocytes (%)” value (day -10) was 6.5%, the “Granulocytes (x 103/ul)” value (day -10) was 1.5 x 103/ul and the Hematocrit (day -10) was 47.5%. The Hemoglobin (day -10) was 17.3 g/dL, the Leucocytes (day -10) was 23800 µL⁻¹ and the “Lymphocytes (%)” value (day -10) was 87.8%. The “Lymphocytes (x 103/ul)” value (day -10) was 20.9 x 103/ul, the “Mean Corpuscular Hemoglobin” value (day -10) was 28.3 pg and the “Mean Corpuscular Volume” value (day -10) was 77.6 fL. For the same compound, the “Mean Hemoglobin Content” value (day -10) was 36.4 g/dL, the “Mean Platelet Volume” value (day -10) was 11 fL and the “Monocytes (%)” value (day -10) was 5.7%. The “Monocytes (x 103/ul)” value (day -10) was 1.4 x 103/ul, the Platelets (day -10) was 266000 µL⁻¹ and the “Red Cell Distribution Width” value (day -10) was 11%. For the same compound, the Reticulocytes (day -10) was 2.1% and the WEIGHT (day -10) was 824 g.
